Read-outs that look alike come from different tables or passages of the source.

One molecule from US20070161697A1, “Hydrazide type compounds and the use thereof in pharmaceutical compositions for the treatment of cardiovascular diseases” (priority 2004, published 2007) can be followed below.

The subject of data set [1] is THP1 cells. Nature of the data set: Inhibition of binding and accumulation of cyanine 3-marked LDLox as lipid vesicles in differentiated THP1 macrophage cells. Type of data set: cell-based. The procedure:
The culture medium may be replaced every two days.
In the present example, the accumulation of lipid vesicles within the cell was measured using THP1 cells following fixation with paraformaldehyde in PBS medium using a solution containing a fluorescent marker of the Oil Red O type in order to visualise the vesicles. The image of the cells rich in vesicles was analysed using a microscope ecqluipped with a CCD camera and software necessary for the analysis.
The medium was replaced every 2-3 days.
The differentiated THP-1 were subsequently incubated with LDLox coupled with cyanine-3 (1.5 μg/ml) in the presence or absence of the molecule CGP02-01 (concentrations of between 10^−5M and 3.1.6 10^−10M) for 24 hours at 37° C., 5% CO2. […] Each image was analysed and quantified with the MetaMorph software (Universal Imaging).

Data set [2] concerns ApoE −/− mice. Nature of the data set: Free cholesterol in plasma, ApoE −/− mice on normal non-enriched dietary regimen. Type of data set: in vivo. The settings on record: 1 mg/kg; 3 months; p<0.05. The text has this:
(§1) Firstly, mice devoid of the coding gene for Apo lipoprotein E (ApoE −/−) have been used. These mice represent a model of choice of studying early atherosclerosis and development of a plaque rich in foamy macrophages. Male C57BL/6J mice homozygote for deletion of the ApoE gene were subjected to a normal dietary regimen until the age of eight weeks. These mice (n=8 per group) subsequently received ad libitum and for 12 weeks either a dietary regimen not enriched with cholesterol or fat, or an enriched regimen, containing 1.5 g/kg of cholesterol and 200 g/kg of fat of milk origin. The untreated mice underwent daily intraperitoneal injections of a solution containing DMSO at 10%. The treated mice received by intraperitoneal injection the same solution containing 2 or 20 μg (i.e. 0.1 mg/kg/day or 1 mg/kg/day) of the compound CGP 02-01. Following the blood sample for the biochemical analyses, the mice were killed.
Measurement of free cholesterol may be performed by an enzymatic method. The free cholesterol is oxidised by cholesterol oxidase into Delta 4 cholestenon and simultaneously produces hydrogen peroxide. The hydrogen peroxide subsequently allows oxidative condensation of the DHESA and the aminoantipyrinre, producing a blue colour. The quantity of free cholesterol is subsequently measured by the absorbance of the blue colour. […]

For data set [3], the system named is ApoE −/− mice. Nature of the data set: Total cholesterol in plasma, ApoE −/− mice on dietary regimen rich in cholesterol. In kind it is in vivo. The settings on record: for Plasma total cholesterol level: untreated 7.27 ± 0.55.
Description: as §1, with “The treated mice received by intraperitoneal injection the same solution containing 2 or 20 μg (i.e. 0.1 mg/kg/day or 1 mg/kg/day) of the compound CGP 02-01.” left out
The circulating total cholesterol may be measured by enzymatic assay using the commercially available kit. This assay may for example use an enzymatic sequence of the cholesterol-esterase/cholesteroloxydase/chromogenic peroxidase type. In summary, the total esterified cholesterol is transformed into free cholesterol and fatty acid by the action of cholesterol esterase. The non-esterified cholesterol is subsequently measured by the formation of quinoeimine in the presence of cholesterol oxidase and peroxidise. The intensity of the quinoneimine coloration is proportional to the quantity of cholesterol present in the sample.
When mice are subjected to a dietary regimen rich in cholesterol, the total cholesterol level decreases from a value of 7.27±0.55 g/L to a value of 6.86±0.65 g/L, i.e. a variation of 5.6%. This effect observed is dependent on the dose of CGP 02-01.

In data set [4] the test system is Wistar rats. The data set can be described thus: Insulin in plasma, rats on dietary regimen rich in fructose. The settings on record: 50 mg/kg oral. Type of data set: in vivo. The procedure: (§2) Secondly, the activity of the compound CGP 02-01 was studied using a reference rat-fructose model. Groups of Wistar rats (n=12) were subjected for 3 weeks to a dietary regimen containing […] of fructose. […] Groups of rats subsequently received by forced feeding 50 mg/kg of the compound CGP 02-01 dissolved in a 2% tween solution prepared in methylcellulose. The blood samples for the biochemical analyses were performed after 1, 2 and 3 weeks. Independent groups of rats wee treated under the same conditions with metformin hydrochloride at a dose of 50 mg/kg. The metformin served as a reference in this metabolic syndrome model. Assay of insulin in plasma may be performed by radioimmunological assay using commercially available kits comprising specific anti-insulin antibodies of mice or rats. One may for example use the rat/mouse ELISA kits, Linco research (ref. EZRMI-13K).

Data set [5] relates to ApoE negative mice. Nature of the data set: Histological analysis of the aortic lesions (atheroma plaque) of ApoE negative mice. Type of data set: in vivo. As to conditions: aorta of treated vs untreated mice; FIG. 6.
Description: as §1
The aortas of the mice are fixed with paraformaldehyde and are dissected into 10 μm sections for histological analysis of the lesions (FIG. 6).

The test system of data set [6] is ApoE −/− mice. Nature of the data set: Analysis of coronary ischaemia in ApoE −/− mice. Type of data set: in vivo. The settings on record: injected; normal or cholesterol-rich regimen; FIG. 15.
Description: as §1
After killing the ApoE −/− mice subjected to a normal dietary regimen or a dietary regimen rich in cholesterol, the hearts of these animals are observed macroscopically. The rate of ischaemic lesions is observed (FIG. 15) and quantified by the presence or absence of lesions (FIG. 16).

Data set [7] has as its system Wistar rats. Nature of the data set: Plasma glucose level (glycaemia) in rats on fructose-rich regimen. Type of data set: in vivo. As to conditions: oral, 21 days of treatment, FIG. 17. Here is the method: as §2, with “model.” for “model. Assay of insulin in plasma may be performed by radioimmunological assay using commercially available kits comprising specific anti-insulin antibodies of mice or rats. One may for example use the rat/mouse ELISA kits, Linco research (ref. EZRMI-13K).”

In data set [8] the test system is rats. The data set can be described thus: Hyperglycaemia test (glucose tolerance) in rats on fructose-rich regimen. Type of data set: in vivo. The settings on record: oral, glucose shock after 14th day, FIG. 18. The text has this: Rats (n=12) were subjected to a dietary regimen rich in fructose (10%) for 21 days. After the 14th day, hyperglycaemic shock is induced by administration of 2 g/kg of glucose in the presence or absence of the compound CGP 02-01 administered via the oral route. The plasma glucose level is subsequently measured.

By inhibition is commonly meant the relative decrease from the control value, in per cent. One may read the melting point as the temperature, or range, at which the solid turns liquid. For the molecule `COc1cc(O)c(/C=N/NC(=O)c2cc3ccccc3s2)c(OC)c1` [CGP02-01, N′-[(1E)-(2-hydroxy-4,6-dimethoxyphenyl)methylene]-1-benzothiophene-2-carbohydrazide], the melting point amounted to 205.4 °C. The “Inhibition of the accumulation of lipid vesicles” value in data set [1] (1 μM, differentiated THP1 macrophage cells) is reported as “major inhibition”. The inhibition at 2.5 µM in data set [1] (Homo sapiens, THP-1, cells expressing the scavenger CD36, lipoproteins marked with cyanine 3, read-out: Inhibition of accumulation of LDLox in (%)) is 76%. Moreover, in data set [1] (Homo sapiens, THP-1, lipoproteins marked with Cyanine 3, dose response curve, FIG. 1, read-out: CI50, accumulation of lipid vesicles in macrophage cell), the IC50 is 500 nM. For the same molecule, the inhibition at 2.5 µM in [1] (Homo sapiens, THP-1 cells, 24 hours, read-out: Inhibition at 2.5 μM on THP-1 cells (24 hours)) was found to be 76%. In data set [2], the “Effect on plasma free cholesterol variation vs untreated” value is recorded as 22.7%. Besides, the “Plasma total cholesterol level” value in [3] (0.4 mg/kg) amounted to 8.08 ± 0.62 g/L. Further, in [3] (1 mg/kg, 3 months), the “Variation of total cholesterol level vs untreated” value is recorded as 5.6% and the “Plasma total cholesterol level” value came to 6.86 ± 0.65 g/L. In [4], the “Variation (reduction) of insulin level” value was 11.3%. The same molecule registered a Plasma insulin level in data set [4] (3 weeks, control 1.85±0.04) of 1.64 ± 0.03 ng/mL. The “Foamy macrophages and inflammatory reaction in the atheroma plaque” value in data set [5] is on record as “significant reduction in these macrophages”. In addition, in data set [6], the “Coronary ischaemic (cardiac) lesions” value is “considerably reduced”. Moreover, the Increase in glycaemia entry in data set [7] is listed as “stabilises this increase in glycaemia”. In addition, the “Effect against induced hyperglycaemia (2 g/kg glucose)” value in data set [8] is “protective effect”.
